ChEMBL document CHEMBL1151250, “A DNA-damaging oxoaporphine alkaloid from Piper caninum” (J Nat Prod, 2004)

Experiments:
Format in all cases: functional, organism-based
Saccharomyces cerevisiae [1] = test: Antimicrobial activity against Saccharomyces cerevisiae RS321NpRAD52 in presence of galactose
Saccharomyces cerevisiae [2] = test: Antimicrobial activity against Saccharomyces cerevisiae RS321NpRAD52 in presence of glucose
Saccharomyces cerevisiae [3] = test: Antimicrobial activity against Saccharomyces cerevisiae RS321NYCp50 in presence of galactose

IC50 (Saccharomyces cerevisiae [1]): 115 µg/mL
IC50 (Saccharomyces cerevisiae [2]): 0.05 µg/mL
IC50 (Saccharomyces cerevisiae [3]): 0.2 µg/mL
SMILES: CN1C(=O)C(=O)c2cc3c(c4c2c1cc1ccccc14)OCO3 [CEPHARADIONE A]
